Laboratory results from US10869931B2, “Polyethylene glycol-modified angiogenesis inhibitor HM-1 and application thereof” (NANJING ANJI BIOLOGICAL TECHNOLOGY CO.,LTD, priority 2016, dated 2020).
Several values for one entry are separate records, joined by “and”; a condition that tells them apart may be missing. Equal values may be shown once. Marks after values point to notes of the source that are not given here. Where no end group is shown, it is not given here.

How the values were obtained:
[1] = tested on: xylene-induced ear swelling in Kunming mice; test: Xylene-induced ear swelling in mice; type: in vivo, mouse; details: 200 mg/kg (positive control) once daily for 5 days
Procedure: Kunming mice were used. The saline group was used as the blank control group, the aspirin group (200 mg/kg) as the positive control group, and the mPEG-HM-1 administration group as the experimental group. Mice were administered once daily for 5 consecutive days. The blank control group was given an equal volume of physiological saline. One hour after the last administration, 0.05 mL of xylene was applied to both sides of the right ear of the mice to cause inflammation, and the left ear was not coated as normal ears. After 2 h, the mice were sacrificed by dislocation, and the ears were cut along the auricle. Ear pieces were taken with a puncher, weighed, and the swelling degree and swelling rate were calculated. Swelling degree=right ear piece weight-left ear piece weight, swelling rate=(swelling degree/left ear piece weight)×100%. Statistical t-test was performed on the test results, *P<0.05 was a significant difference, and **P<0.01 was a very significant difference. See Table 31 to Table 34 for the results.

[2] = tested on: Human Umbilical Vein Endothelial Cells (HUVEC); test: Transwell migration of HUVEC; type: cell-based; details: 10 μg/mL, 24 h
Procedure: 10 mg/mL Matrigel was diluted 1:2 with HUVEC-specific medium, spread on a transwell chamber membrane, and air-dried at room temperature. HUVEC cells cultured in logarithmic growth phase were digested with trypsin digest, collected, washed twice with PBS, and resuspended in blank HUVECs-specific medium. The cells were counted under a microscope, and the cell concentration was adjusted to 1×10^5/mL. The test solutions of each group were prepared and diluted to 100 μL with a blank HUVECs-specific medium. The cells were seeded into a transwell chamber at 100 μL per well, and each set of test solution was added to the chamber. The cell culture was stimulated by adding 0.6 mL of endothelial cell culture medium containing 5% fetal bovine serum and 1% ECGS into a 24-well plate, and cultured at 5% CO2 for 24 hour at 37° c. Discard the culture medium in the well, fix it with 90% alcohol at room temperature for 30 minutes, 0.1% crystal violet for 10 min at room temperature, rinse with water, gently wipe off the unsprayed cells in the upper layer with a cotton swab, observe under microscope and select four fields to take pictures. Calculate migration inhibition (MI) according to the formula: […]
Ntest was the number of cell migration in the test group, and Ncontrol was the number of cell migration in the blank control group.
The test was repeated 3 times independently. The results obtained from the test were calculated as mean±SD, and a statistical T test was performed. *P<0.05 was a significant difference, and **P<0.01 was a very significant difference.

[3] = tested on: human retinal vascular endothelial cells (HRCEC); test: MTT proliferation of human retinal vascular endothelial cells; type: cell-based; details: 10 μg/mL (positive control), 48 h
Procedure: The activity of the angiogenesis inhibitor polypeptide to inhibit proliferation of human retinal vascular endothelial cells was examined by MTT assay. HRCEC cells were cultured in a 37° C., 5% CO2 incubator to a density of 90% or more, and collected by trypsinization. The cells were resuspended in the culture medium and counted under a microscope to adjust the cell concentration to 3.0×10^4 cells/mL. The cell suspension was inoculated into a 96-well plate at 100 μL per well and cultured overnight at 37° C. in a 5% CO2 incubator. After the cells were completely adhered, the angiogenesis inhibitor polypeptide was added as the administration group, and Avastin was used as the positive control group, and the culture media without any drug was used as a blank control group, and the culture media were diluted to each predetermined concentration. Each dilution was separately added to a 96-well plate at 100 μL per well and incubated for 48 h at 37° C. in a 5% CO2 incubator. 20 μL of 5 mg/mL MTT was added to each well of a 96-well plate and incubation was continued for 4 h. The medium was aspirated and dissolved in 100 μL of DMSO per well. […] The formula is as follows: PI (%)=1−administration group/negative group
The test was repeated 3 times independently. The results obtained by the test were expressed as mean±SD, and a statistical T test was performed. *P<0.05 was a significant difference, and **P<0.01 was a very significant difference.

[4] = Half-life / pharmacokinetics of mPEG-HM-1 and HM-1; details: in vivo

With CC(=O)Oc1ccccc1C(=O)O [aspirin, reference compound] the Swelling ([1]; 2 h after xylene) was 3.07 ± 0.31** mg and 3.02 ± 0.41** mg and 3.01 ± 0.53** mg and 2.98 ± 0.53** mg and the “Inhibition rate” value ([1]; ear swelling vs control) was 50.02% and 51.11% and 50.87% and 50.93%.
For “Avastin: positive control in HUVEC migration and HRCEC proliferation tests [reference compound]”, the “cell migration number (Mean ± SD)” value [2] was 564.53 ± 60.36 and 560.64 ± 62.06 and 532.80 ± 60.06 and 572.06 ± 48.92, the “inhibition rate of HUVEC migration” value [2] was 46.78%* and 45.92%* and 48.22%* and 47.62%* and the Inhibition rate ([3]; HRCEC proliferation) was 65.83%** and 64.93%** and 65.71%** and 66.07%**. For the same compound, the “A570 nm-A630 nm” value ([3]; HRCEC, MTT) was 0.4479 ± 0.08104 and 0.4636 ± 0.08322 and 0.4494 ± 0.08132 and 0.4518 ± 0.08013.
Work on “RGADRAGGGGRGD [HM-1, Arg-Gly-Ala-Asp-Arg-Ala-Gly-Gly-Gly-Gly-Arg-Gly-Asp]” yielded an AUC(0-inf) [4] of 32800 ± 8230 ng·h/mL and an MRT inf [4] of 4.02 ± 0.78 min.
